The text below walks through data of patent publication US20110207775A1, “AGENT THAT MODULATES PHYSIOLOGICAL CONDITION OF PESTS, INVOLVED IN INSECT VESICLE-FUSING ATPASE ACTIVITY” (SUMITOMO CHEMICAL COMPANY, LIMITED, priority 2006, published 2011).

Broadly, the IC50 is the concentration at which inhibition is half-maximal. The inhibition is the change of the read-out against control, counted positive when it falls.

The target in assay [1] is cotton aphid vesicle-fusing ATPase (Aphis gossypii, UniProt A0A9P0IYS6). Put plainly: Inhibition of cotton aphid vesicle-fusing ATPase activity (Kinase-Glo luminescent assay of ATP not hydrolyzed). It is filed as biochemical. The following applies: for IC50: 8 concentrations from 100 μM to 0.03 μM, calculated with XLfit, read-out: Activity of inhibiting vesicle-fusing ATPase activity (IC50). The procedure:
Selection of a compound which modulates a vesicle-fusing ATPase activity was performed in a system for measuring and evaluating the vesicle-fusing ATPase activity, the activity being modulated by adding a test compound to an in vitro reaction system using the cotton aphid vesicle-fusing ATPase prepared in Example 7.
As for a measurement of the cotton aphid vesicle-fusing ATPase activity, after the enzymatic reaction of vesicle-fusing ATPase using ATP as a substrate, an amount of ATP that was not hydrolyzed was measured as the amount of luminescence of luciferase using Kinase-Glo™ Luminescent Kinase Assay (manufactured by Promega), according to a method described in the instruction attached to the kit. The vesicle-fusing ATPase activity was calculated from the amount of luminescence.
For measuring the activity, the activity of the aphid vesicle-fusing ATPase was measured when a test compound dissolved in DMSO was contained to a final concentration of 10 μM. In addition, the activity of the aphid vesicle-fusing ATPase was measured when DMSO was contained in place of a test compound. Then, a ratio (%) of a measured value of the activity of the aphid vesicle-fusing ATPase when a test compound dissolved in DMSO was contained, relative to a measured value of the activity of aphid vesicle-fusing ATPase when DMSO was contained in place of the test compound was calculated, and a value obtained by subtracting the calculated value from 100% was adopted as an inhibition degree (%). The results in each test compound are shown in Table 4 in Example 9 together with results of Example 9.
The activity of aphid vesicle-fusing ATPase was measured when a test compound dissolved in DMSO was contained to a final concentration of each concentration of 100 μM, 30 μM, 10 μM, 3 μM, 1 μM, 0.3 μM, 0.1 μM or 0.03 μM. IC50 (μM) was calculated from the result of each concentration at each test compound using a concentration-dependent test analyzing software XL fit (manufactured by idbs). The results are shown in Table 5 in Example 10 together with results of Example 9.

The subject of assay [2] is Aphis gossypii. Kind of assay: Pesticidal activity test, cotton aphid reared on artificial feed containing test compound. It is filed as in vivo. The following applies: same manner as Example 9: 50 ppm in artificial feed, 6 days, controlling value of 30% or more = pesticidal activity.
Assay [3] concerns vesicle-fusing ATPase. The following applies: ATPase inhibitor; Steel et al. 1999, Morgan et al. 1994; cited from earlier work.
The mark [4] stands for this setting: test compound in DMSO at final concentration 10 μM, relative to DMSO control.

Sequence of cotton aphid vesicle-fusing ATPase (A0A9P0IYS6 1-478): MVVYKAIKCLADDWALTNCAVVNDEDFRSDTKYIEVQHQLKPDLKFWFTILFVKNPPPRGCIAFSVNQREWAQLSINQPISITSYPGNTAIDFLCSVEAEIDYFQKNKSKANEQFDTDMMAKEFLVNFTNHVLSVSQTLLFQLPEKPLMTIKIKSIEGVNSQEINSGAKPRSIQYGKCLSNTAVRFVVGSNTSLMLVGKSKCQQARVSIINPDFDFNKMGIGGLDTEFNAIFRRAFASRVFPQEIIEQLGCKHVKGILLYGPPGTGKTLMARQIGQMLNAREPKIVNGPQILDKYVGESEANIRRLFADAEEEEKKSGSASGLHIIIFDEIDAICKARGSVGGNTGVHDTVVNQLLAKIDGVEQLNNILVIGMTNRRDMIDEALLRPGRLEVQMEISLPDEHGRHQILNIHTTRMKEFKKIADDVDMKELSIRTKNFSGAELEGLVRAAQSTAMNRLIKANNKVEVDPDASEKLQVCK

On to `Cc1ccc(C(=O)Nc2ccc(S(=O)(=O)O)c3cc(S(=O)(=O)O)cc(S(=O)(=O)O)c23)cc1NC(=O)c1cccc(NC(=O)Nc2cccc(C(=O)Nc3cc(C(=O)Nc4ccc(S(=O)(=O)O)c5cc(S(=O)(=O)O)cc(S(=O)(=O)O)c45)ccc3C)c2)c1` [Suramin], for which, in assay [1], the half-inhibitory concentration (IC50) was 1.9 µM. Moreover, the inhibition at 10 µM in assay [1] (test compound in DMSO at final concentration 10 μM, relative to DMSO control, read-out: Activity of inhibiting vesicle-fusing ATPase activity (inhibition degree (%) at 10 μm addition)) amounted to 100%. As to `CCCCCCCCCCCCC(=O)N1CCCCC1CNC(=O)[C@@H](N)CCCCN.Cl.Cl` (some centres unmarked) [NPC15437 dihydrochloride], in assay [1], the IC50 is 19 µM. Moreover, the “Activity of inhibiting vesicle-fusing ATPase activity (inhibition degree (%) at 10 μm addition)” value in assay [1] (setting [4]) is on record as 35%. Regarding `Cc1ccc2c(c1)C(=O)C1(O)CCN(c3ccccc3)C1=N2` (racemic) [(±)-Blebbistatin], the “Determination result of pesticidal activity (Result of Example 10)” value in assay [2] is “Absence of”. Further, the IC50 in assay [1] was above 100 µM. The like results for Hypocrellin B were, in that order, “Absence of” and above 100 µM. As to `Clc1ccc(C(c2ccc(Cl)cc2)n2cc[n+](CC(OCc3ccc(Cl)cc3Cl)c3ccc(Cl)cc3Cl)c2)cc1` (centres unmarked) [Calmidazolium Chloride], the IC50 in assay [1] was 4.7 µM. For the same compound, the “Activity of inhibiting vesicle-fusing ATPase activity (inhibition degree (%) at 10 μm addition)” value in assay [1] (setting [4]) was 80%. In the case of `CCN1C(=O)C=CC1=O` [N-ethylmaleimide], the “Activity against vesicle-fusing ATPase” value in assay [3] was “show also activity against vesicle-fusing ATPase”.
